The record followed here is US9657062B2, “Ghrelin analogues” (Zealand Pharma A/S, priority 2012, dated 2017).

Where a SMILES comes first, the peptide text is derived from it. The star is where a group is joined. Octyl = CCCCCCCC*

Test [1] addresses T1, human ghrelin receptor (GHSR1a) (Homo sapiens, UniProt Q92847).
T1 construct: expressed in transfected cells; plasmid pIRESneo2dNGFR
As to the kind of experiment: Ghrelin receptor functional assay (Ca2+ induction, Fluo-4, FLIPR) in HEK293 cells stably expressing the human ghrelin receptor. It counts as cell-based. The conditions noted are these: HEK293 cell line stably expressing human GHSR1a.
Excerpt: To test activation of the ghrelin receptor, stable cell lines expressing the human ghrelin receptor were produced. In brief, HEK293 cells were used for transfection of the cDNA for human ghrelin receptor cloned into the transfection plasmid pIRESneo2dNGFR. […] The DNA encoding the ghrelin receptor was amplified by PCR using primers also encoding terminal restriction sites for subcloning. The ghrelin receptor was subcloned into a mammalian expression vector containing a neomycin (G418) resistance marker. The fidelity of the DNA encoding the receptor was confirmed by DNA sequencing. HEK293 cells were used for transfection of the ghrelin receptor expression plasmid. The cells were grown according to standard protocol in growth medium and transfected with the plasmids using Lipofectamin (Invitrogen) according to the manufacturer's protocol. […]
The plate with test compounds was pre-warmed before starting the measurements. […] The program measures basal level of fluorescence of Fluo-4 for 10 seconds, adds 100 μl of peptide solution to the cells and measures the change in fluorescence as a consequence of the changes in Ca^2+ concentration in the cells. The output used for calculation of activity was selected to be the maximal response (expressed as a ratio to the basal level. EC50 values) and maximal response values were determined based on these values.

The subject of test [2] is normal chow-fed C57BL/6J male mice. As to the kind of experiment: Effect on food intake in normal mice (HM-2 automated monitoring). The note with it: for Accumulated FI at 6h: 300 nmol/kg s.c. once, light phase 0-6 h, modified protocol (food access re-opened 2 h after dosing). It counts as in vivo, mouse. The procedure: Normal chow-fed C57BL/6J male mice were used. The mice were kept in an automated food- and water-intake monitoring system (HM-2) which allows automated on-line measurements of accumulated food intake (FI) and other parameters. Food intake was monitored by the HM-2 system up to 24 h after dosing. The mice were kept 6 per cage, and each dosing group consisted of 6 animals.
In the initial experimental set-up with ghrelin as test compound, animals were allowed free access to food directly after treatment, and the resulting data for food intake are shown in FIG. 1A herein (vide infra).
In order to further investigate the “duration of action” of ghrelin and the other test compounds a new protocol was defined. In the modified protocol the gate to the food chambers was closed prior to dosing with vehicle or test compound and was re-opened 2 hours thereafter. The resulting data for food intake following dosing with ghrelin or vehicle are summarized in FIG. 1B (vide infra), while the corresponding data for food intake following dosing with each of the of the other four test compounds. (Compound 16, 22, 23 or 43 of the invention) or with vehicle are summarized in FIG. 2A (data for monitoring up to 6 hours after dosing) and FIG. 2B (data for monitoring up to 24 hours after dosing).

T1 sequence (Q92847 whole entry): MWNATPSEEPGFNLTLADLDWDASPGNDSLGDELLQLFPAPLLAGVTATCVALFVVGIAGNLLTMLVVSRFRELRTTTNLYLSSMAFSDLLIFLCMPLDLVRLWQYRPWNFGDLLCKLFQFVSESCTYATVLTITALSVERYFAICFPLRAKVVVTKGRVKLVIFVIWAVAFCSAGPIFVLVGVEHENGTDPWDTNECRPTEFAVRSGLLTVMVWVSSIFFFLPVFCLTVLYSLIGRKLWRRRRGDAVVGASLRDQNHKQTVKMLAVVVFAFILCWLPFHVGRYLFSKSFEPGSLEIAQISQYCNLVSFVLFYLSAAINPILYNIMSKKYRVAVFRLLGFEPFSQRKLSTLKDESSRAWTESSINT

The EC50 is the concentration at which the effect is half-maximal. A high value points to a less potent agent. `CC(C)C[C@H](NC(=O)[C@H](CCCCN)NC(=O)[C@H](C)NC(=O)[C@@H]1CCCN1C(=O)[C@@H]1CCCN1C(=O)[C@H](CCCCN)NC(=O)[C@H](CCCCN)NC(=O)[C@H](CO)NC(=O)[C@H](CCC(=O)O)NC(=O)[C@H](CCCCN)NC(=O)[C@H](CCCNC(=N)N)NC(=O)[C@H](CCC(N)=O)NC(=O)[C@H](CCC(N)=O)NC(=O)[C@H](C)NC(=O)[C@H](CCCCN)NC(=O)[C@H](CCC(N)=O)NC(=O)[C@H](Cc1c[nH]cn1)NC(=O)[C@H](CCC(=O)O)NC(=O)[C@@H]1CCCN1C(=O)[C@H](CO)NC(=O)[C@H](CC(C)C)NC(=O)[C@H](Cc1ccccc1)NC(=O)[C@H](CO)NC(=O)[C@H](CO)NC(=O)CN)C(=O)N[C@@H](CCC(N)=O)C(=O)N1CCC[C@H]1C(=O)N[C@@H](CCCNC(=N)N)C(=O)O` [Compound 4, reference compound]: the EC50 in test [1] is more than 1000 nM. Same read-out and setting: for `CCCCCCCCOC[C@H](NC(=O)[C@H](CO)NC(=O)[C@@H]1CCCN1)C(=O)N[C@@H](Cc1ccccc1)C(=O)N[C@@H](CC(C)C)C(=O)N[C@@H](CO)C(=O)N1CCC[C@H]1C(=O)N[C@@H](CCC(=O)O)C(=O)N[C@@H](Cc1c[nH]cn1)C(=O)N[C@@H](CCC(N)=O)C(=O)N[C@@H](CCCNC(=N)N)C(=O)N[C@H](C(=O)N[C@@H](CCC(N)=O)C(=O)N[C@@H](CCCNC(=N)N)C(=O)N[C@@H](CCCCN)C(=O)N[C@@H](CCC(=O)O)C(=O)N[C@@H](CO)C(=O)N[C@@H](CCCCN)C(=O)N[C@@H](CCCCN)C(=O)N1CCC[C@H]1C(=O)N1CCC[C@H]1C(=O)N[C@@H](C)C(=O)N[C@@H](CCCCN)C(=O)N[C@@H](CC(C)C)C(=O)N[C@@H](CCC(N)=O)C(=O)N1CCC[C@H]1C(=O)N[C@@H](CCCNC(=N)N)C(N)=O)C(C)C` [Compound 38] (H-PSS(Octyl)FLSPEHQRVQRKESKKPPAKLQPR-NH2) the value was 0.33 nM. Consider `CCCCCCCCOC[C@H](NC(=O)[C@H](CO)NC(=O)[C@@H]1CCCN1)C(=O)N[C@@H](Cc1ccccc1)C(=O)N[C@@H](CC(C)C)C(=O)N[C@@H](CO)C(=O)N1CCC[C@H]1C(=O)N[C@@H](CCC(=O)O)C(=O)N[C@@H](Cc1c[nH]cn1)C(=O)N[C@@H](CO)C(=O)N[C@@H](CCCNC(=N)N)C(=O)N[C@H](C(=O)N[C@@H](CO)C(=O)N[C@@H](CO)C(=O)N[C@@H](CCCNC(=N)N)C(=O)N[C@@H](CCCCN)C(=O)N[C@@H](CCC(=O)O)C(=O)N[C@@H](CO)C(=O)N[C@@H](CCCCN)C(=O)N[C@@H](CO)C(=O)N1CCC[C@H]1C(=O)N1CCC[C@H]1C(=O)N[C@@H](C)C(=O)N[C@@H](CCCCN)C(=O)N[C@@H](CC(C)C)C(=O)N[C@@H](CO)C(=O)N1CCC[C@H]1C(=O)N[C@@H](CCCNC(=N)N)C(N)=O)C(C)C` [Compound 46] (H-PSS(Octyl)FLSPEHSRVSSRKESKSPPAKLSPR-NH2), for which the “Accumulated FI at 6h” value in test [2] is given as 1.68 ± 0.2 g. For `CCCCCCCCCCCCCCCC(=O)NCCCC[C@H](NC(=O)[C@H](CO)NC(=O)[C@H](CCC(=O)O)NC(=O)[C@H](CCCCN)NC(=O)[C@H](CCCNC(=N)N)NC(=O)[C@H](CCC(N)=O)NC(=O)[C@H](CCC(N)=O)NC(=O)[C@@H](NC(=O)[C@H](CCCNC(=N)N)NC(=O)[C@H](CCC(N)=O)NC(=O)[C@H](Cc1c[nH]cn1)NC(=O)[C@H](CCC(=O)O)NC(=O)[C@@H]1CCCN1C(=O)[C@H](CO)NC(=O)[C@H](CC(C)C)NC(=O)[C@H](Cc1ccccc1)NC(=O)[C@H](COCCCCCCCC)NC(=O)[C@H](CO)NC(=O)[C@@H]1CCCN1)C(C)C)C(=O)N[C@@H](CCCCN)C(=O)N1CCC[C@H]1C(=O)N1CCC[C@H]1C(=O)N[C@@H](C)C(=O)N[C@@H](CCCCN)C(=O)N[C@@H](CC(C)C)C(=O)N[C@@H](CCC(N)=O)C(=O)N1CCC[C@H]1C(=O)N[C@@H](CCCNC(=N)N)C(=O)O` [Compound 16], in test [2], the “Accumulated FI at 6h” value is 0.65 ± 0.1 g.

With `CCCCCCCCOC[C@H](NC(=O)[C@H](CO)NC(=O)[C@@H]1CCCN1)C(=O)N[C@@H](Cc1ccccc1)C(=O)N[C@@H](CC(C)C)C(=O)N[C@@H](CO)C(=O)N1CCC[C@H]1C(=O)N[C@@H](CCC(=O)O)C(=O)N[C@@H](Cc1c[nH]cn1)C(=O)N[C@@H](CO)C(=O)N[C@@H](CCCNC(=N)N)C(=O)N1CCC[C@H]1C(=O)N[C@@H](CO)C(=O)N[C@@H](CO)C(=O)N[C@@H](CCCNC(=N)N)C(N)=O` [Compound 48] (H-PSS(Octyl)FLSPEHSRPSSR-NH2), the “Accumulated FI at 6h” value in test [2] is 0 ± 0 g. Still for that read-out and setting: then `CCCCCCCCOC[C@H](NC(=O)[C@H](CO)NC(=O)[C@@H]1CCCN1)C(=O)N[C@@H](Cc1ccccc1)C(=O)N[C@@H](CC(C)C)C(=O)N[C@@H](CO)C(=O)N1CCC[C@H]1C(=O)N[C@@H](CCC(=O)O)C(=O)N[C@@H](Cc1c[nH]cn1)C(=O)N[C@@H](CO)C(=O)N[C@@H](CCCNC(=N)N)C(=O)N1CCC[C@H]1C(=O)N[C@@H](CO)C(=O)N[C@@H](CO)C(=O)N[C@@H](CCCNC(=N)N)C(=O)N1CCC[C@H]1C(=O)N[C@@H](CCC(=O)O)C(=O)N[C@@H](CO)C(=O)N[C@@H](CO)C(=O)N[C@@H](CO)C(=O)N1CCC[C@H]1C(=O)N1CCC[C@H]1C(=O)N[C@@H](C)C(=O)N[C@@H](CCCCN)C(=O)N[C@@H](CC(C)C)C(=O)N[C@@H](CO)C(=O)N1CCC[C@H]1C(=O)N[C@@H](CCCNC(=N)N)C(N)=O` [Compound 50] (H-PSS(Octyl)FLSPEHSRPSSRPESSSPPAKLSPR-NH2), with 0.19 ± 0.05 g.

Turning to `CCCCCCCC(=O)OC[C@H](NC(=O)[C@H](CO)NC(=O)CN)C(=O)N[C@@H](Cc1ccccc1)C(=O)N[C@@H](CC(C)C)C(=O)N[C@@H](CO)C(=O)N1CCC[C@H]1C(=O)N[C@@H](CCC(=O)O)C(=O)N[C@@H](Cc1c[nH]cn1)C(=O)N[C@@H](CCC(N)=O)C(=O)N[C@@H](CCCNC(=N)N)C(=O)N[C@H](C(=O)N[C@@H](CCC(N)=O)C(=O)N[C@@H](CCC(N)=O)C(=O)N[C@@H](CCCNC(=N)N)C(=O)N[C@@H](CCCCN)C(=O)N[C@@H](CCC(=O)O)C(=O)N[C@@H](CO)C(=O)N[C@@H](CCCCN)C(=O)N[C@@H](CCCCN)C(=O)N1CCC[C@H]1C(=O)N1CCC[C@H]1C(=O)N[C@@H](C)C(=O)N[C@@H](CCCCN)C(=O)N[C@@H](CC(C)C)C(=O)N[C@@H](CCC(N)=O)C(=O)N1CCC[C@H]1C(=O)N[C@@H](CCCNC(=N)N)C(=O)O)C(C)C` [Compound 1, reference compound], the “Effect on food intake (FI)” value in test [2] (300 nmol/kg s.c., access to food delayed for 2 h after administration (FIG. 1B)) was “essentially lost”. Further, the “Food intake (FI) compared to PBS treated controls” value in test [2] (300 nmol/kg s.c., free access to food immediately after dosing (FIG. 1A)) is “increased FI”.
